# What was measured:
# [1] = target: T1, Skp1-ΔSkp2^F−box-peptide interaction (Homo sapiens, UniProt P63208); assay: FP-based in vitro competition assay; assay type: binding; conditions: for Ki: calculated from IC50 with Ki calculator
# T1 construct: recombinantly purify intact (Skp1^WT) and truncate (ΔSkp1^1−140; lacking H8-helix) forms of Skp1; His6; made in house; host or cells: Escherichia coli BL21 (DE3)
# Description: FP measurements were performed using an EnVision multilabel Reader (Perkin Elmer). […] Lyophilized F-box-FAM peptide was initially dissolved in a Tris buffer (20 mM Tris-HCl pH 9.0, 150 mM NaCl, 2 mM DTT), and then a stock solution of 100 μM was prepared by subsequent dilutions in a FP buffer (20 mM Tris-HCl pH 8.0, 150 mM NaCl, 2 mM DTT, 5% (v/v) glycerol, 0.001% (v/v) Triton X-100). Specific controls groups included free F-box-FAM (tracer), bound F-box-FAM in the presence of protein (Skp1^WT or ΔSkp1^1−140), and FP buffer for every measurement, allowing accurate estimation of specific polarization.
# The selected subset of compounds were initially assayed at final concentration of 200 μM. The compounds were incubated at room temperature with Skp1^WT for 1 hr, followed by the addition of the tracer. […] After incubation for another 2 hrs, FP signals was measured on an EnVision multilabel Reader. The FP response was measured in quadruplicates with controls including free F-box-FAM (tracer), bound Skp1^WT-F-box-FAM, and FP buffer. The resultant FP values were plotted as bar graphs using ORIGIN Lab software.
# For gradient FP assay, protein samples were mixed with an appropriate concentrations of ligand over the range of several folds. […] The IC50 value of the compound in the gradient-concentration assay was determined with nonlinear regression and fitting using the following equation in GraphPad Prism® v6.0 (San Diego, CA). Y = Bottom + (Top – Bottom)/(1 + 10^X−LogIC50). […] In short, the relationship between the IC50 of the inhibitor and the Ki of the inhibitor depends on the KD of the fluorescent ligand and the concentration of the receptor.
# [2] = system: mycobacterial; assay: Anti-mycobacterial evaluation; assay type: cell-based
# [3] = target: T2, Skp1 interaction with NIPA (Homo sapiens, UniProt P63208); assay: Cell-based FRET assay in HEK293 cells; conditions: 4 hrs, increasing concentrations
# T2 construct: host or cells: HEK293
# [4] = target: T3, Skp1 interaction with Skp2 (Homo sapiens, UniProt P63208); assay: Cell-based FRET assay in HEK293 cells; conditions: 4 hrs, increasing concentrations
# T3 construct: host or cells: HEK293
# [5] = system: A549 cells; assay: Flow cytometric analysis of cell cycle; assay type: cell-based, human; conditions: 0.5 μM, asynchronized and synchronized A549 cells
# Description: Both asynchronous and synchronous cells were analyzed by flow cytometry with DNA staining to determine the total amount of DNA. For asynchronous analysis, A549 cells were seeded into six-well plates at a density of 6 × 10^5 cells/well. After 14 to 16 hrs of seeding, the cells were treated with indicated concentrations of Z0933M for 24 hrs. Then, the cells were harvested, washed twice with cold PBS, and fixed in cold 70% ethanol on ice (around 4°C) for 4 hrs. Next, the cells were washed twice with cold PBS, resuspended with cold PBS containing […] RnaseA (Sigma), and incubated for 30 min at 37°C. Then, PBS containing […] propidium iodide (PI) (Sigma) was directly added, the cells were mixed gently, and incubated for 5–10 min at room temperature in the dark. Finally, the cell-cycle phase distribution was analyzed in three different experiments using flow cytometry (BD Biosciences, San Diego, CA, USA). At least 10,000 events/sample were acquired. Assays were conducted three times independently. The data was analyzed by FlowJo V10 software. For synchronous cell cycle analysis, cells were synchronized to G1/S boundary by a double-thymidine blockade ([Liu et al., 2015]), and then exposed to Z0933M for time-dependent or dose-dependent analysis. […] Cell cycle distribution was analyzed by flow cytometry (BD Biosciences, San Diego, CA, USA) and FlowJo V10 software.
# T1 sequence (P63208 whole entry, stated change not applied, the tested form may be a part): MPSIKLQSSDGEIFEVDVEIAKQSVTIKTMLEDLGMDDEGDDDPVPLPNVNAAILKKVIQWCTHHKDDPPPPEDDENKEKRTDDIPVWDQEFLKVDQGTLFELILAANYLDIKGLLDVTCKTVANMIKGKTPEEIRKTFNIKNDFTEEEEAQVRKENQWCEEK
# T3 sequence (P63208 whole entry): as the sequence (P63208 whole entry, stated change not applied, the tested form may be a part) above
# T2 sequence (P63208 whole entry): as the sequence (P63208 whole entry, stated change not applied, the tested form may be a part) above
structure (smiles),measurement,setting,value
Nc1ccc(-c2nc3ccccc3c3[nH]c4ccccc4c23)cc1 [Z0933M],inhibition of Skp1-ΔSkp2^F−box-peptide interaction,"[1]; 200 μM compound, 25 μM Skp1^WT, 500 nM tracer",almost completely disrupted
same,Ki,[1],231 ± 18 nM
same,Ki,[1]; figure,~231 nM
same,IC50,"[1]; dose-response FP, Skp1^WT 25 μM, tracer 500 nM",~25000 nM
same,MIC,[2],> 30 µM
same,inhibition of Skp1-NIPA interaction (FRET ratio),[3],significant inhibition
same,inhibition of Skp1-Skp2 interaction (FRET ratio),[4],significant inhibition
same,cell cycle effect,[5],complete G2/M arrest

# From publication PMC9249674, “A small-molecule Skp1 inhibitor elicits cell death by p53-dependent mechanism” (iScience, 2022)
